Read-outs that look alike come from different tables or passages of the source.
How the values were obtained:
[1] = system: Mycosphaerella graminicola; Anamorph: Septoria tritici; Bayer Code SEPTTR; experiment: Fungicidal activity: leaf blotch of wheat, protectant and curative treatment of inoculated wheat plants; assay type: in vivo; details: Zymoseptoria tritici
Description: Evaluation of Fungicidal Activity: Leaf Blotch of Wheat (Mycosphaerella graminicola; Anamorph: Septoria tritici; Bayer Code SEPTTR)
Wheat plants (variety Yuma) were grown from seed in a greenhouse in 50% mineral soil/50% soil-less Metro mix until the first leaf was fully emerged, with 7-10 seedlings per pot. These plants were inoculated with an aqueous spore suspension of Septoria tritici either prior to or after fungicide treatments. After inoculation the plants were kept in 100% relative humidity (one day in a dark dew chamber followed by two to three days in a lighted dew chamber) to permit spores to germinate and infect the leaf. The plants were then transferred to a greenhouse for disease to develop.
The following table presents the activity of typical compounds of the present disclosure when evaluated in these experiments. The effectiveness of the test compounds in controlling disease was determined by assessing the severity of disease on treated plants, then converting the severity to percent control based on the level of disease on untreated, inoculated plants.
In each case of Table II the rating scale is as follows: […]

[2] = 24 h, One-Day Protectant (1DP), 100 ppm, wheat plants (variety Yuma), percent control vs untreated inoculated plants, read-out: SEPTTR 100 PPM 1DP (% Disease Control rating)
[3] = 72 h, Three-Day Curative (3DC), 100 ppm, wheat plants (variety Yuma), percent control vs untreated inoculated plants, read-out: SEPTTR 100 PPM 3DC (% Disease Control rating)
[4] = 24 h, read-out: SEPTTR 100 PPM 1DP (% Disease Control rating)
[5] = 72 h, read-out: SEPTTR 100 PPM 3DC (% Disease Control rating)

Row | Compound | melting point | pest or weed control at 100 ppm [1, 2] | pest or weed control at 100 ppm [1, 3] | pest or weed control at 100 ppm [1, 4] | pest or weed control at 100 ppm [1, 5]
1 | O=C(Nc1nc(=O)n(S(=O)(=O)c2ccc(Cl)cc2)cc1F)Oc1ccccc1 | 192 to 195 °C | – | – | – | –
2 | CN(C)/C=N/c1nc(=O)n(S(=O)(=O)c2ccccc2)cc1F [Cmpd 1, N′-(1-benzenesulfonyl-5-fluoro-2-oxo-1,2-dihydro-pyrimidin-4-yl)-N,N-dimethylformamidine] | 203 to 204 °C | 76 to 100% | 76 to 100% | – | –
3 | CN(C)/C=N/c1nc(=O)n(S(C)(=O)=O)cc1F [Cmpd 3] | 133 to 134 °C | 76 to 100% | 76 to 100% | – | –
4 | CCCS(=O)(=O)n1cc(F)c(/N=C/N(C)C)nc1=O [Cmpd 6] | 144 to 145 °C | 76 to 100% | 76 to 100% | – | –
5 | CN(C)/C=N/c1nc(=O)n(S(=O)(=O)c2cccs2)cc1F [Cmpd 7] | 205 to 207 °C | 76 to 100% | 76 to 100% | – | –
6 | Nc1nc(=O)n(S(=O)(=O)c2ccc(Cl)cc2)cc1F [Cmpd 8, 4-amino-1-(4-chloro-benzenesulfonyl)-5-fluoro-1H-pyrimidin-2-one] | – | 76 to 100% | 76 to 100% | – | –
7 | Cc1cc(S(=O)(=O)n2cc(F)c(N)nc2=O)ccc1Oc1ncc(C(F)(F)F)cc1Cl [Cmpd 22] | – | 76 to 100% | 76 to 100% | – | –
8 | CN(C)/C=N/c1nc(=O)n(S(=O)(=O)c2cn(C)cn2)cc1F [Cmpd 28, N′-[5-fluoro-1-(1-methyl-1H-imidazole-4-sulfonyl)-2-oxo-1,2-dihydro-pyrimidin-4-yl]-N,N-dimethylformamidine] | – | 26 to 50% | 51 to 75% | – | –
9 | CN(C)/C=N/c1nc(=O)n(S(=O)(=O)c2c(Cl)cccc2Cl)cc1F [Cmpd 29] | 207 to 211 °C | 76 to 100% | 76 to 100% | – | –
10 | O=C(Nc1nc(=O)n(S(=O)(=O)c2ccccc2)cc1F)c1ccccc1 [Cmpd 33, N-(1-benzenesulfonyl-5-fluoro-2-oxo-1,2-dihydro-pyrimidin-4-yl)-benzamide] | – | – | – | 76 to 100% | 26 to 50%
11 | O=C(Nc1nc(=O)n(S(=O)(=O)c2ccc(Cl)cc2)cc1F)c1ccccc1 [Cmpd 37] | 156 to 159 °C | 76 to 100% | 26 to 50% | – | –
12 | O=C(Nc1nc(=O)n(S(=O)(=O)c2ccc(Cl)cc2)cc1F)c1ccc(Cl)cc1 [Cmpd 38, 4-chloro-N-[1-(4-chlorobenzenesulfonyl)-5-fluoro-2-oxo-1,2-dihydropyrimidin-4-yl]benzamideamide] | – | 76 to 100% | 0 to 25% | – | –
13 | O=C(Nc1ccccc1)Nc1nc(=O)n(S(=O)(=O)c2ccccc2)cc1F [Cmpd 40, 1-(1-benzenesulfonyl-5-fluoro-2-oxo-1,2-dihydropyrimidin-4-yl)-3-phenylurea] | 210 to 214 °C | – | – | 0 to 25% | 26 to 50%
14 | O=C(Nc1ccccc1)Nc1nc(=O)n(S(=O)(=O)c2ccc(Cl)cc2)cc1F [Cmpd 41] | 211 to 214 °C | – | – | – | –
15 | O=C(Nc1ccccc1)Nc1nc(=O)n(S(=O)(=O)c2c(Cl)cccc2Cl)cc1F [Cmpd 42] | 205 to 210 °C | 0 to 25% | 26 to 50% | – | –
16 | COc1ccc(S(=O)(=O)n2cc(F)c(NC(=O)Nc3ccccc3)nc2=O)cc1 [Cmpd 43] | 185 to 191 °C | 0 to 25% | 26 to 50% | – | –
17 | O=c1nc(NC(=S)Nc2ccccc2)c(F)cn1S(=O)(=O)c1ccccc1 [Cmpd 44, (1-benzenesulfonyl-5-fluoro-2-oxo-1,2-dihydropyrimidin-4-yl)-3-phenylthiourea] | 205 to 208 °C | – | – | 0 to 25% | 26 to 50%
18 | COc1ccc(S(=O)(=O)n2cc(F)c(NC(=S)Nc3ccccc3)nc2=O)cc1 [Cmpd 45] | 190 to 195 °C | 26 to 50% | 51 to 75% | – | –

More lines, main results first:

Row | melting point | Compound | pest or weed control at 100 ppm [1, 2] | pest or weed control at 100 ppm [1, 3] | pest or weed control at 100 ppm [1, 4] | pest or weed control at 100 ppm [1, 5]
19 | 207 to 210 °C | CN(C)/C=N/c1nc(=O)n(S(=O)(=O)c2ccc(Cl)cc2)cc1F [Cmpd 2, N′-[1-(4-chloro-benzenesulfonyl)-5-fluoro-2-oxo-1,2-dihydro-pyrimidin-4-yl]-N,N-dimethylformamidine] | 76 to 100% | 76 to 100% | – | –
20 | 199 to 203 °C | Cc1ccc(S(=O)(=O)n2cc(F)c(/N=C/N(C)C)nc2=O)cc1 [Cmpd 4] | 76 to 100% | 76 to 100% | – | –
21 | 188 to 190 °C | COc1ccc(S(=O)(=O)n2cc(F)c(/N=C/N(C)C)nc2=O)cc1 [Cmpd 5] | 76 to 100% | 76 to 100% | – | –
22 | 187 to 189 °C | Nc1nc(=O)n(S(=O)(=O)c2cccs2)cc1F [Cmpd 9] | 76 to 100% | 76 to 100% | – | –
23 | 144 to 146 °C | CCCS(=O)(=O)n1cc(F)c(N)nc1=O [Cmpd 10] | 76 to 100% | 76 to 100% | – | –
24 | 235 to 237 °C | Cn1cnc(S(=O)(=O)n2cc(F)c(N)nc2=O)c1 [Cmpd 11] | 26 to 50% | 26 to 50% | – | –
25 | 172 to 174 °C | Nc1nc(=O)n(S(=O)(=O)Cc2ccccc2)cc1F [Cmpd 12] | 76 to 100% | 76 to 100% | – | –
26 | 229 to 230 °C | Nc1nc(=O)n(S(=O)(=O)c2ccc(Cl)cc2Cl)cc1F [Cmpd 13] | 76 to 100% | 76 to 100% | – | –
27 | 202 to 204 °C | Nc1nc(=O)n(S(=O)(=O)c2ccc(C(F)(F)F)cc2)cc1F [Cmpd 14] | 76 to 100% | 76 to 100% | – | –
28 | 220 to 223 °C | CS(=O)(=O)c1ccc(S(=O)(=O)n2cc(F)c(N)nc2=O)cc1 [Cmpd 15] | 51 to 75% | 76 to 100% | – | –
29 | 210 °C | N#Cc1ccc(S(=O)(=O)n2cc(F)c(N)nc2=O)cc1 [Cmpd 16] | 51 to 75% | 76 to 100% | – | –
30 | 206 to 207 °C | Nc1nc(=O)n(S(=O)(=O)c2ccc(Cl)c(Cl)c2)cc1F [Cmpd 17] | 76 to 100% | 76 to 100% | – | –
31 | 209 to 212 °C | Nc1nc(=O)n(S(=O)(=O)c2c(Cl)cccc2Cl)cc1F [Cmpd 18] | 76 to 100% | 76 to 100% | – | –
32 | 156 to 159 °C | Nc1nc(=O)n(S(=O)(=O)Cc2ccc(Br)cc2)cc1F [Cmpd 19] | 76 to 100% | 76 to 100% | – | –
33 | 168 to 170 °C | Nc1nc(=O)n(S(=O)(=O)Cc2ccc(Cl)cc2)cc1F [Cmpd 20] | – | – | – | –
34 | 164 to 166 °C | Cc1ccc(CS(=O)(=O)n2cc(F)c(N)nc2=O)cc1 [Cmpd 21] | – | – | – | –
35 | 132 °C (dec.) | Cc1cc(Oc2ncc(C(F)(F)F)cc2Cl)ccc1S(=O)(=O)n1cc(F)c(N)nc1=O [Cmpd 23] | 76 to 100% | 76 to 100% | – | –
36 | 195 to 196 °C | Nc1nc(=O)n(S(=O)(=O)c2ccccc2)cc1F [Cmpd 24] | 76 to 100% | 76 to 100% | – | –
37 | 208 to 210 °C | Cc1ccc(S(=O)(=O)n2cc(F)c(N)nc2=O)cc1 [Cmpd 25] | 76 to 100% | 76 to 100% | – | –
38 | 182.5 °C | COc1ccc(S(=O)(=O)n2cc(F)c(N)nc2=O)cc1 [Cmpd 26] | 76 to 100% | 76 to 100% | – | –
39 | 181 to 184 °C | CS(=O)(=O)n1cc(F)c(N)nc1=O [Cmpd 27] | 76 to 100% | 76 to 100% | – | –
40 | 152 to 154 °C | CN(C)/C=N/c1nc(=O)n(S(=O)(=O)Cc2ccccc2)cc1F [Cmpd 30] | – | – | – | –
41 | 140 to 143 °C | CN(C)/C=N/c1nc(=O)n(S(=O)(=O)Cc2ccc(Cl)cc2)cc1F [Cmpd 31] | – | – | – | –
42 | 150 to 152 °C | Cc1ccc(CS(=O)(=O)n2cc(F)c(/N=C/N(C)C)nc2=O)cc1 [Cmpd 32] | – | – | – | –
43 | 159 to 162 °C | CC(=O)Nc1nc(=O)n(S(=O)(=O)c2ccc(Cl)cc2)cc1F [Cmpd 34] | 76 to 100% | 76 to 100% | – | –
44 | 148 to 154 °C (dec.) | CCC(=O)Nc1nc(=O)n(S(=O)(=O)c2ccc(Cl)cc2)cc1F [Cmpd 35] | 76 to 100% | 76 to 100% | – | –
45 | 129 to 132 °C | CC(C)(C)C(=O)Nc1nc(=O)n(S(=O)(=O)c2ccc(Cl)cc2)cc1F [Cmpd 36] | 76 to 100% | 76 to 100% | – | –
46 | 156 to 158 °C | Cc1ccc(C(=O)Nc2nc(=O)n(S(=O)(=O)c3ccc(Cl)cc3)cc2F)cc1 [Cmpd 39] | 0 to 25% | 76 to 100% | – | –

Reference: patent US9862686B2, “N1-sulfonyl-5-fluoropyrimidinone derivatives” (Adama Makhteshim Ltd., priority 2009, dated 2018)
